ChEMBL document CHEMBL4364318, “Targeting multiple myeloma with natural polyphenols” (Eur J Med Chem, 2019)

How the values were obtained:
RPMI-8226 = assay: Induction of apoptosis in human RPMI8226 cells at 10 to 20 uM by TUNEL assay relative to control; assay type: functional
U-266 = assay: Induction of nitric oxide production in human U266 cells; assay type: functional, cell-based

Q: `O=C(O[C@@H]1Cc2c(O)cc(O)cc2O[C@@H]1c1cc(O)c(O)c(O)c1)c1cc(O)c(O)c(O)c1` [EPIGALOCATECHIN GALLATE] was tested. Which Activity (RPMI-8226) did it give?
A: >100%

Q: What about the IC50 (U-266) of the same molecule?
A: 23.2 µM
